Assay results taken from patent US20230233569A1 (Revolution Medicines, Inc., priority 2020, published 2023).
Like-named read-outs stand apart in the source and are kept apart here.

Tests used:
[1] = test system: P70S6K (Thr389) phosphorylation (mTORC1) in MDA-MB-468 cells; experiment: Cell based AlphaLISA assay, mTOR kinase cellular assay: inhibition of p-P70S6K (T389) in MDA-MB-468 cells
Protocol: (§1) Cell Based AlphaLISA Assays for Determining IC50 For Inhibition of P-Akt (S473), P-4E-BP1 (T37/46), and P-P70S6K (T389) in MDA-MB-468 Cells
(§2) mTOR Kinase Cellular Assay
(§3) To measure functional activity of mTORC1 and mTORC2 in cells the phosphorylation of 4EBP1 (Thr37/46) and P70S6K (Thr389), and AKT1/2/3 (Ser473) was monitored using AlphaLisa SureFire Ultra Kits (Perkin Elmer). MDA-MB-468 cells (ATCC® HTB-132) were cultured in 96-well tissue culture plates and treated with compounds in the disclosure at concentrations varying from 0.017-1,000 nM for two to four hours at 37° C. Incubations were terminated by removal of the assay buffer and addition of lysis buffer provided with the assay kit. Samples were processed according to the manufacturer's instructions. The Alpha signal from the respective phosphoproteins was measured in duplicate using a microplate reader (Envision, Perkin-Elmer or Spectramax M5, Molecular Devices). Inhibitor concentration response curves were analyzed using normalized IC50 regression curve fitting with control based normalization.

[2] = test system: AKT1/2/3 (Ser473) phosphorylation (mTORC2) in MDA-MB-468 cells; experiment: Cell based AlphaLISA assay, mTOR kinase cellular assay: inhibition of p-Akt (S473) in MDA-MB-468 cells
In short: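 MDA-MB-468 cells treated with compound at 0.017-1,000 nM for two to four hours at 37° C, then lysed. Phospho-AKT1/2/3 S473, 4EBP1 T37/46 and P70S6K T389 quantified by AlphaLISA SureFire Ultra in duplicate; IC50 from normalized regression with control-based normalization.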

[3] = test system: 4EBP1 (Thr37/46) phosphorylation (mTORC1) in MDA-MB-468 cells; experiment: Cell based AlphaLISA assay, mTOR kinase cellular assay: inhibition of p-4E-BP1 (T37/46) in MDA-MB-468 cells
Protocol: as §1, §2, §3

[4] = Homo sapiens, read-out: pIC50 for Inhibition of mTORC1 and mTORC2 Substarte Phosphorylation p-P70S6K-(T389) (converted)
[5] = Homo sapiens, read-out: pIC50 for Inhibition of mTORC1 and mTORC2 Substarte Phosphorylation p-AKT1/2/3-(S473) (converted)
[6] = Homo sapiens, read-out: pIC50 for Inhibition of mTORC1 and mTORC2 Substarte Phosphorylation p-4E-BP1-(T37/46) (converted)

IC50 ([1]; two to four hours at 37° C., AlphaLisa SureFire Ultra, read-out: IC50 for Inhibition of mTORC1 and mTORC2 Substarte Phosphorylation, p-P70S6K-(T389)) [nM] | IC50 ([2]; two to four hours at 37° C., AlphaLisa SureFire Ultra, read-out: IC50 for Inhibition of mTORC1 and mTORC2 Substarte Phosphorylation, p-AKT1/2/3-(S473)) [nM] | IC50 ([3]; two to four hours at 37° C., AlphaLisa SureFire Ultra, read-out: IC50 for Inhibition of mTORC1 and mTORC2 Substarte Phosphorylation, p-4E-BP1-(T37/46)) [nM] | SMILES | IC50 [1, 4] [nM] | IC50 [2, 5] [nM] | IC50 [3, 6] [nM]
 |  |  | CO[C@H]1C[C@@H]2CC[C@@H](C)[C@@](O)(O2)C(=O)C(=O)N2CCCC[C@H]2C(=O)O[C@H]([C@H](C)C[C@@H]2CC[C@@H](OC(=O)NCc3cnc(N4CCN(c5ncc(C(=O)NCCOCCOCCOCCOCCC(=O)N6CCc7cc(Cn8nc(-c9cnc%10[nH]ccc%10c9)c9c(N)ncnc98)ccc7C6)c(N)n5)CC4)nc3)[C@H](OC)C2)CC(=O)[C@H](C)/C=C(\C)[C@@H](O)[C@@H](OC)C(=O)[C@H](C)C[C@H](C)/C=C/C=C/C=C/1C [Example 108] | 1 to 10 | > 1000 | > 1000
 |  |  | CO[C@H]1C[C@@H]2CC[C@@H](C)[C@@](O)(O2)C(=O)C(=O)N2CCCC[C@H]2C(=O)O[C@H]([C@H](C)C[C@@H]2CC[C@@H](OC(=O)NCc3cnc(N4CCN(C(=O)CCOCCN5CCN(c6ncc(C(=O)NCCOCCC(=O)N7CCc8cc(Cn9nc(-c%10ccc%11oc(N)nc%11c%10)c%10c(N)ncnc%109)ccc8C7)cn6)CC5)CC4)nc3)[C@H](OC)C2)CC(=O)[C@H](C)/C=C(\C)[C@@H](O)[C@@H](OC)C(=O)[C@H](C)C[C@H](C)/C=C/C=C/C=C/1C [Example 64] | ≤ 1 | 3.16 to 31.6 | ≤ 3.16
 |  |  | CO[C@H]1C[C@@H]2CC[C@@H](C)[C@@](O)(O2)C(=O)C(=O)N2CCCC[C@H]2C(=O)O[C@H]([C@H](C)C[C@@H]2CC[C@@H](OC(=O)NCCOCCOCCOCCOCCOCCOCCOCCOCCOCCOCCC(=O)N3CCC(n4nc(-c5cnc6[nH]ccc6c5)c5c(N)ncnc54)CC3)[C@H](OC)C2)CC(=O)[C@H](C)/C=C(\C)[C@@H](O)[C@@H](OC)C(=O)[C@H](C)C[C@H](C)/C=C/C=C/C=C/1C [Example 20] | ≤ 1 | ≤ 3.16 | ≤ 3.16
 |  |  | CO[C@H]1C[C@@H]2CC[C@@H](C)[C@@](O)(O2)C(=O)C(=O)N2CCCC[C@H]2C(=O)O[C@H]([C@H](C)C[C@@H]2CC[C@@H](OC(=O)NCCOCCOCCOCCOCCOCCOCCC(=O)N3CCC(N4CCC(C(=O)N5CCc6cc(Cn7nc(-c8ccc9oc(N)nc9c8)c8c(N)ncnc87)ccc6C5)CC4)CC3)[C@H](OC)C2)C[C@@H](O)[C@H](C)/C=C(\C)[C@@H](O)[C@@H](OC)C(=O)[C@H](C)C[C@H](C)/C=C/C=C/C=C/1C [Example 113] | ≤ 1 | 3.16 to 31.6 | ≤ 3.16
 |  |  | CO[C@H]1C[C@@H]2CC[C@@H](C)[C@@](O)(O2)C(=O)C(=O)N2CCCC[C@H]2C(=O)O[C@H]([C@H](C)C[C@@H]2CC[C@@H](OC(=O)NCCOCCOCCOCCOCCOCCOCCOCCOCC(=O)N3CCc4cc(Cn5nc(-c6ccc7oc(N)nc7c6)c6c(N)ncnc65)ccc4C3)[C@H](OC)C2)CC(=O)[C@H](C)/C=C(\C)[C@@H](O)[C@@H](OC)C(=O)[C@H](C)C[C@H](C)/C=C/C=C/C=C/1C [Example 71] | ≤ 1 | 3.16 to 31.6 | ≤ 3.16
 |  |  | CO[C@H]1C[C@@H]2CC[C@@H](C)[C@@](O)(O2)C(=O)C(=O)N2CCCC[C@H]2C(=O)O[C@H]([C@H](C)C[C@@H]2CC[C@@H](OC(=O)N3CCc4nc(N5CCN(CCOCCOCCOCCOCCOCCC(=O)N6CCc7cc(Cn8nc(-c9cnc%10[nH]ccc%10c9)c9c(N)ncnc98)ccc7C6)CC5)ncc4C3)[C@H](OC)C2)CC(=O)[C@H](C)/C=C(\C)[C@@H](O)[C@@H](OC)C(=O)[C@H](C)C[C@H](C)/C=C/C=C/C=C/1C [Example 38] | ≤ 1 | > 1000 | > 1000
 |  |  | CO[C@H]1C[C@@H]2CC[C@@H](C)[C@@](O)(O2)C(=O)C(=O)N2CCCC[C@H]2C(=O)O[C@H]([C@H](C)C[C@@H]2CC[C@@H](OC(=S)NCc3cnc(N4CCN(C(=O)CCOCCN5CCN(c6ncc(C(=O)N7CCc8cc(Cn9nc(-c%10ccc%11oc(N)nc%11c%10)c%10c(N)ncnc%109)ccc8C7)cn6)CC5)CC4)nc3)[C@H](OC)C2)C[C@@H](O)[C@H](C)/C=C(\C)[C@@H](O)[C@@H](OC)C(=O)[C@H](C)C[C@H](C)/C=C/C=C/C=C/1C [Example 117] | ≤ 1 | 3.16 to 31.6 | ≤ 3.16
 |  |  | CO[C@H]1C[C@@H]2CC[C@@H](C)[C@@](O)(O2)C(=O)C(=O)N2CCCC[C@H]2C(=O)O[C@H]([C@H](C)C[C@@H]2CC[C@@H](OC(=O)NCCOCCOCCOCCOCCC(=O)NCc3cnc(N4CCN(c5ncc(C(=O)N6CCc7cc(Cn8nc(-c9ccc%10oc(N)nc%10c9)c9c(N)ncnc98)ccc7C6)cn5)CC4)nc3)[C@H](OC)C2)C[C@@H](O)[C@H](C)/C=C(\C)[C@@H](O)[C@@H](OC)C(=O)[C@H](C)C[C@H](C)/C=C/C=C/C=C/1C [Example 49] | ≤ 1 | 3.16 to 31.6 | ≤ 3.16
 |  |  | CO[C@H]1C[C@@H]2CC[C@@H](C)[C@@](O)(O2)C(=O)C(=O)N2CCCC[C@H]2C(=O)O[C@H]([C@H](C)C[C@@H]2CC[C@@H](OC(=O)NCc3cnc(N4CCN(C(=O)CCOCCOCCN5CCN(c6ncc(C(=O)N7CCc8cc(Cn9nc(-c%10cnc%11[nH]ccc%11c%10)c%10c(N)ncnc%109)ccc8C7)cn6)CC5)CC4)nc3)[C@H](OC)C2)CC(=O)[C@H](C)/C=C(\C)[C@@H](O)[C@@H](OC)C(=O)[C@H](C)C[C@H](C)/C=C/C=C/C=C/1C [Example 123] | ≤ 1 | 31.6 to 1000 | ≤ 3.16
 |  |  | CO[C@H]1C[C@@H]2CC[C@@H](C)[C@@](O)(O2)C(=O)C(=O)N2CCCC[C@H]2C(=O)O[C@H]([C@H](C)C[C@@H]2CC[C@@H](OC(=O)NCc3cnc(N4CCN(C(=O)CCOCCN5CCN(c6ncc(C(=O)NCCOCCC(=O)NCCCCn7nc(-c8ccc9oc(N)nc9c8)c8c(N)ncnc87)cn6)CC5)CC4)nc3)[C@H](OC)C2)CC(=O)[C@H](C)/C=C(\C)[C@@H](O)[C@@H](OC)C(=O)[C@H](C)C[C@H](C)/C=C/C=C/C=C/1C [Example 63] | ≤ 1 | ≤ 3.16 | ≤ 3.16
 |  |  | CO[C@H]1C[C@@H]2CC[C@@H](C)[C@@](O)(O2)C(=O)C(=O)N2CCCC[C@H]2C(=O)O[C@H]([C@H](C)C[C@@H]2CC[C@@H](OC(=O)N3CCc4nc(N5CCN(c6ncc(C(=O)NCCOCCOCCOCCOCCC(=O)N7CCc8cc(Cn9nc(-c%10ccc%11oc(N)nc%11c%10)c%10c(N)ncnc%109)ccc8C7)cn6)CC5)ncc4C3)[C@H](OC)C2)CC(=O)[C@H](C)/C=C(\C)[C@@H](O)[C@@H](OC)C(=O)[C@H](C)C[C@H](C)/C=C/C=C/C=C/1C [Example 39] | ≤ 1 | ≤ 3.16 | ≤ 3.16
 |  |  | CO[C@H]1C[C@@H]2CC[C@@H](C)[C@@](O)(O2)C(=O)C(=O)N2CCCC[C@H]2C(=O)O[C@H]([C@H](C)C[C@@H]2CC[C@@H](OC(=O)NCCOCCOCCOCCOCCOCCOCCC(=O)N3CCC(N4CCC(C(=O)N5CCc6cc(Cn7nc(-c8ccc9oc(N)nc9c8)c8c(N)ncnc87)ccc6C5)CC4)CC3)[C@H](OC)C2)CC(=O)[C@H](C)/C=C(\C)[C@@H](O)[C@@H](OC)C(=O)[C@H](C)C[C@H](C)/C=C/C=C/C=C/1C [Example 48] | ≤ 1 | 3.16 to 31.6 | ≤ 3.16
 |  |  | CO[C@H]1C[C@@H]2CC[C@@H](C)[C@@](O)(O2)C(=O)C(=O)N2CCCC[C@H]2C(=O)O[C@H]([C@H](C)C[C@@H]2CC[C@@H](OC(=O)NCCOCCOCCOCCOCCOCCOCCC(=O)NC3CCN(CC(=O)N4CCc5cc(Cn6nc(-c7ccc8oc(N)nc8c7)c7c(N)ncnc76)ccc5C4)CC3)[C@H](OC)C2)C[C@@H](O)[C@H](C)/C=C(\C)[C@@H](O)[C@@H](OC)C(=O)[C@H](C)C[C@H](C)/C=C/C=C/C=C/1C [Example 112] | ≤ 1 | > 1000 | > 1000
 |  |  | CO[C@H]1C[C@@H]2CC[C@@H](C)[C@@](O)(O2)C(=O)C(=O)N2CCCC[C@H]2C(=O)O[C@H]([C@H](C)C[C@@H]2CC[C@@H](OC(=O)NCc3cnc(N4CCN(C(=O)CCOCCN5CCN(c6ncc(C(=O)NCCOCCC(=O)NCCCCn7nc(-c8cnc9[nH]ccc9c8)c8c(N)ncnc87)cn6)CC5)CC4)nc3)[C@H](OC)C2)CC(=O)[C@H](C)/C=C(\C)[C@@H](O)[C@@H](OC)C(=O)[C@H](C)C[C@H](C)/C=C/C=C/C=C/1C [Example 66] | 10 to 1000 | 3.16 to 31.6 | 31.6 to 1000
1.4 | 3.7 | 16 | CC(C)n1nc(-c2ccc3oc(N)nc3c2)c2c(N)ncnc21 [MLN-128] |  |  | 
